# Measured values reported in patent US8394969B2, “Cyclic benzimidazole derivatives useful as anti-diabetic agents” (Merck Sharp & Dohme Corp., priority 2008, dated 2013).
# Counter-ions that a name gives are not always drawn.
# Biological target: recombinant human AMPK complex 1 (containing α1β1γ1) (Homo sapiens, UniProt Q13131+Q9Y478)
# Assay: […] (in vitro AMPK activation assay)
# Assay type: biochemical
# Conditions: read-out: % Maximum AMP Activation of human AMPK Complex 1, recombinant human AMPK complex 1 (α1β1γ1); basal activity subtracted
# Method: Recombinant viruses were generated by cotransfection of AMPK/pBacPak9 clones with Baculogold baculovirus DNA (Pharmingen) in spodoptera frugiperda 21 cells according to the manufacturer's instructions. Each round of virus amplification was performed for 5 days in Grace's medium containing 10% serum. Virus that had been subjected to three rounds of amplification was used for all protein production procedures. To express the AMPK complex, sf21 cells were adapted to serum free medium (SF900 II, Invitrogen) by sequential dilution from serum containing stocks into SF900 II medium and maintained in shaker flasks at 90 rpm at 27° C. The recombinant AMPK enzyme complex was produced by triple infection, one recombinant virus for each of the subunits, in sf21 cells under serum free conditions. […] Cells were harvested by centrifugation at 10,000×g for 15 minutes after 72 hours of infection with viruses. The insect cell pellet from 2 liters of culture was resuspended in 50 ml lysis buffer (20 mM Tris-HCl, 50 mM NaCl, 50 mM NaF, 30 mM Na PPi, 0.25 M sucrose, 10 mM ZnCl2, 2 mM DTT, 0.4 mg/ml digitonin) and subjected to two cycles of freeze-thaw lysis in a dry-ice ethanol bath. Insoluble material was removed by centrifugation at 10,000×g and the supernatant was fractionated with use of polyethylene glycol (PEG).
# The total in vitro AMPK activation assay volume is 50 μl in a 96-well plate. […] The reaction was initiated with addition of the enzyme. After 30-minute incubation at 30° C., the reaction was stopped by addition of 80 μl 1% H3PO4. Aliquots (100 μl) were transferred to 96-well MultiScreen plates (MAPHNOB50; Millipore Corp., Bedford, Mass., USA). The plate was washed three times with 1% H3PO4 followed by detection in a Top-count. The counts per minute from the basal activity (the reaction without activator) was subtracted from each well and the data were expressed as % maximum AMP activation followed by EC50 calculation.
# Chain of recombinant human AMPK complex 1 (containing α1β1γ1) (Q13131 whole entry): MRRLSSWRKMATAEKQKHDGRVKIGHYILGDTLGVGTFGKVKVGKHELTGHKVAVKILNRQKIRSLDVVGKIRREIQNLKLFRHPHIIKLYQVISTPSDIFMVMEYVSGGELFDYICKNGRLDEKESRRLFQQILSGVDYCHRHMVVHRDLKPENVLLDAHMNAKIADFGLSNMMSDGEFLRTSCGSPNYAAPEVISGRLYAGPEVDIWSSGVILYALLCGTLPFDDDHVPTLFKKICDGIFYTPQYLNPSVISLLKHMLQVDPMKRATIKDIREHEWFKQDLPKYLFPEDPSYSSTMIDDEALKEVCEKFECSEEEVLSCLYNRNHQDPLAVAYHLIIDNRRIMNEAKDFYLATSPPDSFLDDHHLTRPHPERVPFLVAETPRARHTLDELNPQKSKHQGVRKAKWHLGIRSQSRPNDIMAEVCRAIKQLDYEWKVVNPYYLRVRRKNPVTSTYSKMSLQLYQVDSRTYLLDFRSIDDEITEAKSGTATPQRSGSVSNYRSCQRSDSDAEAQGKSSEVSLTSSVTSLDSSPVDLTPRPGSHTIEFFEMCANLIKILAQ
# Chain of recombinant human AMPK complex 1 (containing α1β1γ1) (Q9Y478 whole entry): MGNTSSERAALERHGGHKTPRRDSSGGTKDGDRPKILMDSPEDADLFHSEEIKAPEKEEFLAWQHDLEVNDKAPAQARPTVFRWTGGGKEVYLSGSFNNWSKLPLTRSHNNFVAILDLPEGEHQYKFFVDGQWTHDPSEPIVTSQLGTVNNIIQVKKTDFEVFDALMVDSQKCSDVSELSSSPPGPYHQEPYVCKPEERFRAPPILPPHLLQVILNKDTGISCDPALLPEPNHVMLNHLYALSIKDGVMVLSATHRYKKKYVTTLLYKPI
# Chain of recombinant human AMPK complex 1 (containing α1β1γ1) (P54619 whole entry partner): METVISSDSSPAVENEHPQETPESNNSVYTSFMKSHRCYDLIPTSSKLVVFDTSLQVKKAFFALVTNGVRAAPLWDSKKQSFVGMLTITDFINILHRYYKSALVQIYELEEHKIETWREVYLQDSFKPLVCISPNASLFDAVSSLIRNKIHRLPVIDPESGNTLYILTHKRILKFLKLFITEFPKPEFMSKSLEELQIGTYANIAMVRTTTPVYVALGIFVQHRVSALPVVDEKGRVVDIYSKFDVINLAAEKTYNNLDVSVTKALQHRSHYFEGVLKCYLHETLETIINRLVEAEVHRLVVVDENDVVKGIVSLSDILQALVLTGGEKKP
row,SMILES,Emax [%]
1,"Cc1ccc(Oc2nc3cc(-c4cccc(C(C)C)c4)c(Cl)cc3[nH]2)cc1C(=O)O [Example 339, Ammonium 5-{[6-chloro-5-(3-isopropylphenyl)-1H-benzimidazol-2-yl]oxy}-2-methylbenzoate]",> 80

# Same assay, conditions: recombinant human AMPK complex 1 (α1β1γ1); basal activity subtracted; read-out: % Maximum AMP Activation of human AMPK Complex 1
row,SMILES,Emax [%]
1,"Cc1ccc(Oc2nc3cc(-c4ccc(-c5ccc(C#N)cc5)cc4)c(Cl)cc3[nH]2)cc1C(=O)O [Example 103, 5-[6-Chloro-5-(4′-cyano-biphenyl-4-yl)-1H-benzoimidazol-2-yloxy]-2-methyl-benzoic acid]",> 80
2,"NC(=O)Nc1cccc(Oc2nc3cc(-c4ccc(-c5ccccc5)cc4)c(Cl)cc3[nH]2)c1 [Example 2, [3-(5-Biphenyl-4-yl-6-chloro-1H-benzoimidazol-2-yloxy)-phenyl]-urea]",> 80
3,"COC(=O)c1cc(Oc2nc3cc(-c4ccc(-c5ccccc5)cc4)c(Cl)cc3[nH]2)cc(C)c1C(=O)OC [Example 15, 5-(5-Biphenyl-4-yl-6-chloro-1H-benzoimidazol-2-yloxy)-3-methyl-phtalic acid dimethyl ester]",> 80
4,"COC(=O)c1cc(Oc2nc3cc(-c4ccc(-c5ccc(OC)nc5)cc4)c(Cl)cc3[nH]2)cc(C)c1C [Example 314, 5-{6-Chloro-5-[4-(6-methoxy-pyridin-3-yl)-phenyl]-1H-benzoimidazol-2-yloxy}-2,3-dimethyl-benzoic acid methyl ester]",> 80
5,"Cc1ccc(Oc2nc3cc(-c4ccc5ccn(C)c5c4)c(Cl)cc3[nH]2)cc1C(=O)O [Example 284, 5-[6-Chloro-5-(1-methyl-1H-indol-6-yl)-1H-benzoimidazol-2-yloxy]-2-methyl-benzoic acid]",> 80
6,"Cc1ccc(Oc2nc3cc(-c4ccc(C#N)cc4)c(Cl)cc3[nH]2)cc1C(=O)O [Example 180, 5-[6-Chloro-5-(4-cyano-phenyl)-1H-benzoimidazol-2-yloxy]-2-methyl-benzoic acid]",> 80
7,"Cc1ccc(Oc2nc3cc(-c4ccc(C(=O)O)c5c4ccn5C)c(Cl)cc3[nH]2)cc1C(=O)O [Example 271, 4-[2-(3-Carboxy-4-meihyl-phenoxy)-6-chloro-1H-benzoimidazol-5-yl]-1-methyl-1H-indole-7-carboxylic acid]",> 80
8,"Cc1cc(Oc2nc3cc(-c4ccc(-c5ccccc5O)cc4)c(Cl)cc3[nH]2)cc(C(=O)O)c1 [Example 53, 3-[6-Chloro-5-(2′-hydroxy-biphenyl-4-yl)-1H-benzoimidazol-2-yloxy]-5-methyl-benzoic acid]",> 80
9,"COc1ccc(-c2ccc(-c3cc4nc(Oc5ccc(C)c(C(=O)O)c5)[nH]c4cc3Cl)cc2)cc1 [Example 172, 5-[6-Chloro-5-(4′-methoxy-biphenyl-4-yl)-1H-benzoimidazol-2-yloxy]-2-methyl-benzoic acid]",> 80
10,"Cc1ccc(Oc2nc3cc(C4=CCN(c5ncccn5)CC4)c(Cl)cc3[nH]2)cc1C(=O)O [Example 158, 2-(3-carboxy-4-methylphenoxy)-6-chloro-5-(1-pyrimidin-2-yl-1,2,3,6-tetrahydropyridin-4-yl)-1H-3,1-benzimidazol-3-ium trifluoroacetate]",> 80
11,"Cc1ccc(Oc2nc3cc(C#Cc4ccc(-c5nc6ccccc6o5)cc4)c(Cl)cc3[nH]2)cc1C(=O)O [Example 81, 5-[5-(4-Benzooxazol-2-yl-phenylethynyl)-6-chloro-1H-benzoimidazol-2-yloxy]-2-methyl-benzoic acid]",> 80
12,"O=C(O)c1ccc(Oc2nc3cc(-c4ccc(-c5ccccc5)cc4)c(Cl)cc3[nH]2)cc1 [Example 38, 4-(5-Biphenyl-4-yl-6-chloro-1H-benzoimidazol-2-yloxy)-benzoic acid]",> 80

# Same assay, conditions: recombinant human AMPK complex 1 (α1β1γ1); read-out: EC50
row,SMILES,EC50 [nM]
1,"Cc1ccc(Oc2nc3cc(-c4ccc(C5(CO)CC5)cc4)c(Cl)cc3[nH]2)cc1C(=O)O [Example 262, 5-[(6-chloro-5-{4-[1-(hydroxymethyl)cyclopropyl]phenyl}-1H-benzimidazol-2-yl)oxy]-2-methylbenzoic acid]",3
